Data reported in patent US10329334B2 (SANOFI, priority 2015, dated 2019).
Starred links: 1 amine or outer side, 2 acyl side, 3 side chain; linkers in the order of their positions; H or OH if unused. Positions of bridges follow the written chain, without caps; N, C: chain ends. Non-standard residues stand in square brackets, D forms with d. Residues, ends and D or L forms follow the SMILES beside them. *: point of attachment. X1 = O=C([C@@H]1CCNc2c(N[*:1])cc3cc(O)c(O)cc3[n+]21)[*:2]; X4 = O=C([C@@H]1CCN=C2C(N[*:1])=Cc3cc(O)c(O)cc3N21)[*:2]; dOrn(N5-OH,N5-CHO) = N[C@H](CCCN(O)C=O)C(=O)O; Butanoyl(2-oxo,4-COOH) = O=C(O)CCC(=O)C(=O)*; X5 = O=CN(O)CCC[C@H](N[*:1])C(=O)[*:2]; d(aThr) = C[C@@H](O)[C@@H](N)C(=O)O; Suc = O=C(CCC(=O)[*:2])[*:1]; X2 = O=C1[C@@H](N*)CCCN1[O-]; Orn = NCCC[C@H](N)C(=O)O

Tests used:
Format in all cases: binding
[1] = target: negative control lipocalin SEQ ID NO: 64 (Homo sapiens, UniProt P80188, C107S/Q48H); assay: SPR (Biacore T200), negative control SEQ ID NO: 64; conditions: 1200 nM
Sequence of negative control lipocalin SEQ ID NO: 64 (P80188 21-198 Q48H/C107S): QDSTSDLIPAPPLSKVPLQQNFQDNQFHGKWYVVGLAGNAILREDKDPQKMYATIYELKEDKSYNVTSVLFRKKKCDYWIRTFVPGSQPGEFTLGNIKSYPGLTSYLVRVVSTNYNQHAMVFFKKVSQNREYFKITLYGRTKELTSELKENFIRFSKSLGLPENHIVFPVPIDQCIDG
Protocol: (§1) In a Surface Plasmon Resonance (SPR) based assay a Biacore T200 instrument (GE Healthcare) was used to measure the binding affinity of muteins to pyoverdine I succinyl, -succinamid, -α-ketoglutaryl with complexed iron ion or to pyoverdine II succinyl, -succinamid, -α-ketoglutaryl with complexed iron ion or to pyoverdine III succinyl, -succinamid, -α-ketoglutaryl with complexed iron ion. Muteins selected for binding to pyoverdines and negative control (SEQ ID NO: 64) were biotinylated for 2 h at room temperature applying an appropriate excess of EZ-Link NHS-PEG4-Biotin (Thermo, […]) followed by separation of non-reacted Biotin using a Zeba Spin Desalting Plate (Thermo, […]) according to the manufactures instructions.
(§2) In the SPR affinity assay, biotinylated muteins and negative control were captured on a sensor chip CAP using the Biotin CAPture Kit (GE Healthcare): Sensor Chip CAP is pre-immobilized with an ssDNA oligo. Undiluted Biotin CAPture Reagent (streptavidin conjugated with the complementary ss-DNA oligo) was applied at a flow rate of 2 μl/min for 300 s. Subsequently, 1 μg/ml to 100 μg/mL of biotinylated muteins or negative control were applied for 300 s at a flow rate of 5 μl/min. The reference channel was loaded with Biotin CAPture Reagent only.
Applying a flow rate of 30 μl/min, a single cycle or multi cycle kinetics approach was used with a sample contact time of 120-180 s and a dissociation time of 900-2400 s. […] After ligand immobilization, for analysis using single cycle kinetics all 4-5 concentrations of Pvd were applied consecutively in ascending order before the dissociation was monitored. For analysis using multi cycle kinetics 4 dilutions of Pvd were applied, each followed a dissociation phase. All measurements were performed at 25° C. […] Data were evaluated with Biacore T200 Evaluation software (V 1.0). Double referencing was used. A 1:1 Binding model was used to fit the raw data. […]

[2] = target: T1, human lipocalin 2 (hNGAL) mutein SEQ ID NO: 43 (Homo sapiens, UniProt P80188, A60L/C107S/D97K/I61A/K154W/K93Q/L123Q/L56E/L90R/N116L/Q48H/Q69M/R101V/S147V/S88E/W99D/Y120D/Y126E/Y72M); assay: SPR (Biacore T200), mutein SEQ ID NO: 43; conditions: 25° C.
T1 construct: made in house; host or cells: E. coli
T1 sequence (P80188 21-198 with the stated changes): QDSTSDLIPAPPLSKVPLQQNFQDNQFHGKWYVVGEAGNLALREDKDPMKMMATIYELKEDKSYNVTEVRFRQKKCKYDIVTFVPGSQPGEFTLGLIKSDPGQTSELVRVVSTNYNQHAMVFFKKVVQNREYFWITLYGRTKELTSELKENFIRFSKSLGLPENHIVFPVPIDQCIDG
Protocol: as §1, §2
(§3) Applying a flow rate of 30 μl/min, a single cycle or multi cycle kinetics approach was used with a sample contact time of 120-180 s and a dissociation time of 900-2400 s. […] After ligand immobilization, for analysis using single cycle kinetics all 4-5 concentrations of Pvd were applied consecutively in ascending order before the dissociation was monitored. For analysis using multi cycle kinetics 4 dilutions of Pvd were applied, each followed a dissociation phase. All measurements were performed at 25° C. […] Data were evaluated with Biacore T200 Evaluation software (V 1.0). Double referencing was used. A 1:1 Binding model was used to fit the raw data.

[3] = target: T2, human lipocalin 2 (hNGAL) mutein SEQ ID NO: 44 (Homo sapiens, UniProt P80188, A60L/C107S/D97K/I61T/K154W/K93R/L123Q/L56E/L90R/N116V/Q48H/Q69M/R101V/S147V/S88E/W99D/Y120D/Y126E/Y72M); assay: SPR (Biacore T200), mutein SEQ ID NO: 44; conditions: 25° C.
T2 construct: made in house; host or cells: E. coli
T2 sequence (P80188 21-198 with the stated changes): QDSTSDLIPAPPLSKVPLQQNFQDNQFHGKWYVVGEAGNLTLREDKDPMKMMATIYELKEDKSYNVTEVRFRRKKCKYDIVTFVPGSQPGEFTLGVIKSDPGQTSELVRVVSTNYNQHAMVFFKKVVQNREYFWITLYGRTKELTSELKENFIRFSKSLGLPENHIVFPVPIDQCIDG
Protocol: as §1, §2, §3

[4] = target: T3, human lipocalin 2 (hNGAL) mutein SEQ ID NO: 45 (Homo sapiens, UniProt P80188, A60L/C107S/D97K/I61A/K154W/K93H/L123Q/L56E/L90R/N116L/Q48H/Q69M/R101V/S147V/S88E/W99D/Y120D/Y126E/Y72M); assay: SPR (Biacore T200), mutein SEQ ID NO: 45; conditions: 25° C.
T3 construct: made in house; host or cells: E. coli
T3 sequence (P80188 21-198 with the stated changes): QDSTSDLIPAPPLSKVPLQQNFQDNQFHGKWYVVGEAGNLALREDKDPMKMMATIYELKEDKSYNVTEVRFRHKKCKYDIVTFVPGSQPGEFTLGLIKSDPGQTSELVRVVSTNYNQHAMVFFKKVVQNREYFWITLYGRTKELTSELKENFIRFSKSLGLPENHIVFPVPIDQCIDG
Protocol: as §1, §2, §3

[5] = target: T4, human lipocalin 2 (hNGAL) mutein SEQ ID NO: 46 (G-N-I-K, positions 95-98, deleted) (Homo sapiens, UniProt P80188, A60L/C107S/D97Q/DEL115-118/I61A/K154W/K93Y/L123Q/L56E/L90R/Q48H/Q69K/R101V/S147V/S88E/W99D/Y120E/Y126E/Y152F/Y72M); assay: SPR (Biacore T200), mutein SEQ ID NO: 46; conditions: 25° C.
T4 construct: made in house; host or cells: E. coli
T4 sequence (P80188 with tags, fused parts or gaps with the stated changes): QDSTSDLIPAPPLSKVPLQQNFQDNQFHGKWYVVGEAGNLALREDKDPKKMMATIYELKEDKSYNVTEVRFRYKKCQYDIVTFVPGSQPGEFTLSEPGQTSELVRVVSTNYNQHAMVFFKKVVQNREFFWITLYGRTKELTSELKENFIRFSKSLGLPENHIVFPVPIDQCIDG
Protocol: as §1, §2, §3

[6] = target: T5, human lipocalin 2 (hNGAL) mutein SEQ ID NO: 47 (Homo sapiens, UniProt P80188, A60L/C107S/D97K/I61A/K154W/K93H/L123Q/L56E/L62R/L90R/N116L/Q48H/Q69M/R101V/S125P/S147V/S88E/W99D/Y120D/Y126E/Y72M); assay: SPR (Biacore T200), mutein SEQ ID NO: 47; conditions: 25° C.
T5 construct: made in house; host or cells: E. coli
T5 sequence (P80188 21-198 with the stated changes): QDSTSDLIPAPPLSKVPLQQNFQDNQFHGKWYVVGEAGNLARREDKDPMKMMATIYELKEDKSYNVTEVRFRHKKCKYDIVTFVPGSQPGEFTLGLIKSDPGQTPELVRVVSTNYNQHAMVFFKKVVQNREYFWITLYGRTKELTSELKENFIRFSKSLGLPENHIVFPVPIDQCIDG
Protocol: as §1, §2, §3

[7] = target: T6, human lipocalin 2 (hNGAL) mutein SEQ ID NO: 48 (Homo sapiens, UniProt P80188, A60L/C107S/D67N/D97K/I61A/K154W/K93H/L123Q/L56E/L90R/N116L/Q48H/Q69M/R101V/S125P/S147V/S88E/T165P/W99D/Y120D/Y126E/Y72M); assay: SPR (Biacore T200), mutein SEQ ID NO: 48; conditions: 25° C.
T6 construct: made in house; host or cells: E. coli
T6 sequence (P80188 21-198 with the stated changes): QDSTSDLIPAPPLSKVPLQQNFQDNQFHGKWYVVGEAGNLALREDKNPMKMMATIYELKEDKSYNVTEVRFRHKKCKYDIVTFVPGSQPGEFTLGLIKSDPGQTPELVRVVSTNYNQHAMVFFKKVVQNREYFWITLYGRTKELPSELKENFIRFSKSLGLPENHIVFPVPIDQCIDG
Protocol: as §1, §2, §3

[8] = target: T7, human lipocalin 2 (hNGAL) mutein SEQ ID NO: 49 (Homo sapiens, UniProt P80188, A60L/C107S/D65G/D97K/I61A/K154W/K66R/K93H/L123Q/L56E/L90R/N116L/Q48H/Q69M/R101V/S125P/S147V/S88E/W99D/Y120D/Y126E/Y72M); assay: SPR (Biacore T200), mutein SEQ ID NO: 49; conditions: 25° C.
T7 construct: made in house; host or cells: E. coli
T7 sequence (P80188 21-198 with the stated changes): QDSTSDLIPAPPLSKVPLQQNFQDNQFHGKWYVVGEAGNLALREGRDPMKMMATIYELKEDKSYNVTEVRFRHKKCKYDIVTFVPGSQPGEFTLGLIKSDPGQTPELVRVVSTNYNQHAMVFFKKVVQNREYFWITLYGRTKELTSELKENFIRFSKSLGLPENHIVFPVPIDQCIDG
Protocol: as §1, §2, §3

[9] = target: T8, human lipocalin 2 (hNGAL) mutein SEQ ID NO: 32 (Homo sapiens, UniProt P80188, A60E/C107S/D97N/E64D/I61V/K145N/K154W/K93N/L123V/L56V/L90R/N116K/N85D/Q48H/Q69G/R101E/R92H/S147K/S88E/W99F/Y120N/Y126M/Y152G/Y72P); assay: SPR (Biacore T200), mutein SEQ ID NO: 32; conditions: 25° C.
T8 construct: made in house; host or cells: E. coli
T8 sequence (P80188 21-198 with the stated changes): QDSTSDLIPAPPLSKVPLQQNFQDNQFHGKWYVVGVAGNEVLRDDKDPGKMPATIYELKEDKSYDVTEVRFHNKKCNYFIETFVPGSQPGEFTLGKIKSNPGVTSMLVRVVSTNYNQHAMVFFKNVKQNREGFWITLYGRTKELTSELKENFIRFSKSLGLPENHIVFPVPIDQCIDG
Protocol: (§4) In a Surface Plasmon Resonance (SPR) based assay a Biacore T200 instrument (GE Healthcare) was used to measure the binding affinity of muteins to pyoverdine I succinyl, -succinamid, -α-ketoglutaryl with complexed iron ion or to pyoverdine II succinyl, -succinamid, -α-ketoglutaryl with complexed iron ion or to pyoverdine III succinyl, -succinamid, -α-ketoglutaryl with complexed iron ion. Muteins selected for binding to pyoverdines and negative control (SEQ ID NO: 64) were biotinylated for 2 h at room temperature applying an appropriate excess of EZ-Link NHS-PEG4-Biotin (Thermo, Cat#21329) followed by separation of non-reacted Biotin using a Zeba Spin Desalting Plate (Thermo, Cat#21329) according to the manufactures instructions.

[10] = target: T9, human lipocalin 2 (hNGAL) mutein SEQ ID NO: 33 (Homo sapiens, UniProt P80188, A60E/C107S/D97N/E64D/I61V/K145N/K154W/K93N/L123V/L56V/L90R/N116K/N85Q/Q48H/Q69G/R101E/R92H/S147K/S88E/W99F/Y120N/Y126M/Y152G/Y72P); assay: SPR (Biacore T200), mutein SEQ ID NO: 33; conditions: 25° C.
T9 construct: made in house; host or cells: E. coli
T9 sequence (P80188 21-198 with the stated changes): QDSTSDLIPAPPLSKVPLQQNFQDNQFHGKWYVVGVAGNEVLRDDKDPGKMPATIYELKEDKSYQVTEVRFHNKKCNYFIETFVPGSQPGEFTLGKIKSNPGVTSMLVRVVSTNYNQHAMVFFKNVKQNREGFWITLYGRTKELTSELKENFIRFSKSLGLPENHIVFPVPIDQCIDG
Protocol: as §4

[11] = target: T10, human lipocalin 2 (hNGAL) mutein SEQ ID NO: 35 (Homo sapiens, UniProt P80188, A60T/C107S/D97H/K145I/K154W/K93R/L123T/L56V/L90R/N85Q/Q48H/Q69G/R101D/R92I/S147R/S88D/T74A/W99Y/Y126Q/Y152I/Y72N); assay: SPR (Biacore T200), mutein SEQ ID NO: 35; conditions: 25° C.
T10 construct: made in house; host or cells: E. coli
T10 sequence (P80188 21-198 with the stated changes): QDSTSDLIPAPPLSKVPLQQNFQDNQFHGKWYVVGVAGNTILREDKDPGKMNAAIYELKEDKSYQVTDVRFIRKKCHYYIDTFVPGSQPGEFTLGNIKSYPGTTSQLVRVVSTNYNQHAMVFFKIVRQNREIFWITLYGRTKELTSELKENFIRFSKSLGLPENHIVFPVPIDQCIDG
Protocol: as §4

Compound	absence of binding to negative control [1]	Kd [2] [nM]	koff [2] [s⁻¹]	kon [2] [M⁻¹ s⁻¹]	Kd [3] [nM]	koff [3] [s⁻¹]	kon [3] [M⁻¹ s⁻¹]	Kd [4] [nM]	koff [4] [s⁻¹]	kon [4] [M⁻¹ s⁻¹]	Kd [5] [nM]	koff [5] [s⁻¹]	kon [5] [M⁻¹ s⁻¹]	Kd [6] [nM]	koff [6] [s⁻¹]	kon [6] [M⁻¹ s⁻¹]	Kd [7] [nM]	koff [7] [s⁻¹]	kon [7] [M⁻¹ s⁻¹]	Kd [8] [nM]	other results
C[C@@H](O)[C@@H]1NC(=O)[C@H](CCCN(O)C=O)NC(=O)[C@@H](NC(=O)[C@H](CCCN(O)C=O)NC(=O)[C@@H](CO)NC(=O)[C@H](CCCNC(=N)N)NC(=O)[C@@H](CO)NC(=O)[C@@H]2CCN=C3C(NC(=O)CCC(=O)O)=Cc4cc(O)c(O)cc4N32)CCCCNC(=O)[C@H]([C@@H](C)O)NC1=O.[Fe+3] [Pvd I s (+Fe)] (Suc-[X4][dS]R[dS][X5]K[X5]TT; lactam 6-C)	absence of binding																				
NC(=O)CC[C@H](NC(=O)[C@H](CCCN([O-])C=O)NC(=O)[C@@H]1CCN=C([C@@H](CO)NC(=O)[C@@H]2CCNc3c(NC(=O)C(=O)CCC(=O)O)cc4cc([O-])c([O-])cc4[n+]32)N1)C(=O)N[C@H](CCC(N)=O)C(=O)N[C@H](CCCN([O-])C=O)C(=O)NCC(=O)O.[Fe+3] [Pvd III aKG (+Fe)]		5.29	0.000303	57300	5.64	0.000271	48200	6.99	0.00033	47300	3.15	0.000241	76700	8.97	0.000262	29200	5.81	0.000158	27200	1.53	koff [8]: 4.29e-05 s⁻¹; kon [8]: 28100 M⁻¹ s⁻¹
C[C@@H](O)[C@@H](NC(=O)CNC(=O)[C@H](CCCN)NC(=O)[C@@H](CCCN([O-])C=O)NC(=O)[C@@H](CO)NC(=O)[C@@H]1CCNc2c(NC(=O)C(=O)CCC(=O)O)cc3cc([O-])c([O-])cc3[n+]21)C(=O)N[C@@H](CO)C(=O)N[C@H]1CCCN([O-])C1=O.[Fe+3] [Pvd II aKG (+Fe)] ({Butanoyl(2-oxo,4-COOH)}-[X1][dS][dOrn(N5-OH,N5-CHO)][Orn]G[d(aThr)]S-X2)																					Kd [9]: 3.44 nM; koff [9]: 0.000374 s⁻¹; kon [9]: 109000 M⁻¹ s⁻¹; Kd [10]: 4.19 nM; koff [10]: 0.000416 s⁻¹; kon [10]: 99300 M⁻¹ s⁻¹; Kd [11]: 3.42 nM; koff [11]: 0.000149 s⁻¹; kon [11]: 43500 M⁻¹ s⁻¹
NC(=O)CCC(=O)Nc1cc2cc([O-])c([O-])cc2[n+]2c1NCC[C@H]2C(=O)N[C@H](CO)C1=NCC[C@@H](C(=O)N[C@@H](CCCN([O-])C=O)C(=O)N[C@@H](CCC(N)=O)C(=O)N[C@H](CCC(N)=O)C(=O)N[C@H](CCCN([O-])C=O)C(=O)NCC(=O)O)N1.[Fe+3] [Pvd III sa (+Fe)]		3.04	0.000107	35200	2.94	8.9e-05	30300	3.03	9.91e-05	32700	1.58	6.9e-05	43600	0.2	2.52e-05	128000	0.64	9.51e-05	148000	0.84	koff [8]: 0.000112 s⁻¹; kon [8]: 134000 M⁻¹ s⁻¹
C[C@@H](O)[C@@H](NC(=O)CNC(=O)[C@H](CCCN)NC(=O)[C@@H](CCCN([O-])C=O)NC(=O)[C@@H](CO)NC(=O)[C@@H]1CCNc2c(NC(=O)CCC(=O)O)cc3cc([O-])c([O-])cc3[n+]21)C(=O)N[C@@H](CO)C(=O)N[C@H]1CCCN([O-])C1=O.[Fe+3] [Pvd II s (+Fe)] (Suc-[X1][dS][dOrn(N5-OH,N5-CHO)][Orn]G[d(aThr)]S-X2)	absence of binding																				
